From patent US20230120564A1, “PYRIDO[3,4-D]PYRIMIDINE DERIVATIVE AND THERAPEUTIC PHARMACEUTIC COMPOSITION COMPRISING SAME” (KOREA INSTITUTE OF SCIENCE AND TECHNOLOGY, priority 2020, published 2023)

How the values were obtained:
Assay in all cases: full kinase panel biochemical assay
BRK = BRK (Homo sapiens, UniProt Q13882); settings: single concentration of 1 μM; read-out: percent inhibition of BRK
Experimental: (§1) In order to measure the protein kinase inhibitory activity (% inhibition) of the compound of the present invention, biochemical assay was performed in the full kinase panel. As a test compound, Compound No. 4 was used. The percent inhibition of each kinase when treated with the test compound at a single concentration of 1 μM was measured, and the residual enzyme activity values (%) of the kinases were calculated. Kinases whose calculated residual enzyme activity values (%) was 30% or less (i.e., kinases inhibited by 70% or more) are as follows: ABL1, ABL2/ARG, ACK1, ARAF, BLK, BMX/ETK, BRAF, BRK, BTK, c-Kit, c-Src, CSK, DDR1, DDR2, EPHA1, EPHA2, EPHA3, EPHA4, EPHA5, EPHA6, EPHA7, EPHA8, EPHB1, EPHB2, EPHB3, EPHB4, ERBB2/HER2, ERBB4/HER4, FGFR1, FGFR2, FGFR3, FGR, FLT1/VEGFR1, FLT4/VEGFR3, FMS, FRK/PTK5, FYN, GCK/MAP4K2, HCK, HGK/MAP4K4, JAK1, JAK2, KDR/VEGFR2, KHS/MAP4K5, LCK, LYN, LYN B, MEKK1, MLK4, MYLK3, NEK5, P38a/MAPK14, P38b/MAPK11, PDGFRa, PDGFRb, PEAK1, RET, RIPK2, RIPK4, SIK2, SRPK1, TAOK3/JIK, TLK1, TNK1, TXK, TYK2, YES/YES1, YSK4/MAP3K19, and ZAK/MLTK.

EPHA8 = EPHA8 (Homo sapiens, UniProt P29322); settings: single concentration of 1 μM; read-out: percent inhibition of EPHA8
Experimental: as §1

ABL1 = ABL1 (Homo sapiens, UniProt P00519); settings: single concentration of 1 μM; read-out: percent inhibition of ABL1
Experimental: as §1

HGK/MAP4K4 = HGK/MAP4K4 (Homo sapiens, UniProt O95819); settings: single concentration of 1 μM; read-out: percent inhibition of HGK/MAP4K4
Experimental: as §1

RIPK4 = RIPK4 (Homo sapiens, UniProt P57078); settings: single concentration of 1 μM; read-out: percent inhibition of RIPK4
Experimental: as §1

TNK1 = TNK1 (Homo sapiens, UniProt Q13470); settings: single concentration of 1 μM; read-out: percent inhibition of TNK1
Experimental: as §1

ABL2/ARG = ABL2/ARG (Homo sapiens, UniProt P42684); settings: single concentration of 1 μM; read-out: percent inhibition of ABL2/ARG
Experimental: as §1

BRAF = BRAF (Homo sapiens, UniProt P15056); settings: single concentration of 1 μM; read-out: percent inhibition of BRAF
Experimental: as §1

c-Src = c-Src (Homo sapiens, UniProt P12931); settings: single concentration of 1 μM; read-out: percent inhibition of c-Src
Experimental: as §1

FGFR3 = FGFR3 (Homo sapiens, UniProt P22607); settings: single concentration of 1 μM; read-out: percent inhibition of FGFR3
Experimental: as §1

CSK = CSK (Homo sapiens, UniProt P41240); settings: single concentration of 1 μM; read-out: percent inhibition of CSK
Experimental: as §1

EPHA6 = EPHA6 (Homo sapiens, UniProt Q9UF33); settings: single concentration of 1 μM; read-out: percent inhibition of EPHA6
Experimental: as §1

EPHA2 = EPHA2 (Homo sapiens, UniProt P29317); settings: single concentration of 1 μM; read-out: percent inhibition of EPHA2
Experimental: as §1

TYK2 = TYK2 (Homo sapiens, UniProt P29597); settings: single concentration of 1 μM; read-out: percent inhibition of TYK2
Experimental: as §1

DDR2 = DDR2 (Homo sapiens, UniProt Q16832); settings: single concentration of 1 μM; read-out: percent inhibition of DDR2
Experimental: as §1

HCK = HCK (Homo sapiens, UniProt P08631); settings: single concentration of 1 μM; read-out: percent inhibition of HCK
Experimental: as §1

LYN B = LYN B (Homo sapiens, UniProt P07948); settings: single concentration of 1 μM; read-out: percent inhibition of LYN B
Experimental: as §1

LYN = LYN (Homo sapiens, UniProt P07948); settings: single concentration of 1 μM; read-out: percent inhibition of LYN
Experimental: as §1

JAK1 = JAK1 (Homo sapiens, UniProt P23458); settings: single concentration of 1 μM; read-out: percent inhibition of JAK1
Experimental: as §1

EPHA1 = EPHA1 (Homo sapiens, UniProt P21709); settings: single concentration of 1 μM; read-out: percent inhibition of EPHA1
Experimental: as §1

PDGFRa = PDGFRa (Homo sapiens, UniProt P16234); settings: single concentration of 1 μM; read-out: percent inhibition of PDGFRa
Experimental: as §1

MLK4 = MLK4 (Homo sapiens, UniProt Q5TCX8); settings: single concentration of 1 μM; read-out: percent inhibition of MLK4
Experimental: as §1

DDR1 = DDR1 (Homo sapiens, UniProt Q08345); settings: single concentration of 1 μM; read-out: percent inhibition of DDR1
Experimental: as §1

FRK/PTK5 = FRK/PTK5 (Homo sapiens, UniProt P42685); settings: single concentration of 1 μM; read-out: percent inhibition of FRK/PTK5
Experimental: as §1

Chain of c-Src (P12931 whole entry): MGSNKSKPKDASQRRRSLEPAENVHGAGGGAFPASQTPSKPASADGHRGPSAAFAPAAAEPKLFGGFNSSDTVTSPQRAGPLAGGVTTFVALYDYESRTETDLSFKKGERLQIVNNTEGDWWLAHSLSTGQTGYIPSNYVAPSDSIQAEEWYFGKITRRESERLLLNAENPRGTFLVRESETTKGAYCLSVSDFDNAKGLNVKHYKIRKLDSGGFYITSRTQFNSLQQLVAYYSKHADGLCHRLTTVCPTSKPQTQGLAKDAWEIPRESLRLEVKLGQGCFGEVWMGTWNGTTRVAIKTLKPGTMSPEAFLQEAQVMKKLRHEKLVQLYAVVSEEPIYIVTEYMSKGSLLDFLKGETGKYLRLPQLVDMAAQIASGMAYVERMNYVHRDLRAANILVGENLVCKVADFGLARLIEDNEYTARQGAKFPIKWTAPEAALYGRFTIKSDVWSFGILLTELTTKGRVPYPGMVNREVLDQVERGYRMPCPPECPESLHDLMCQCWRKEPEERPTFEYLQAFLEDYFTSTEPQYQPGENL
Chain of ABL2/ARG (P42684 whole entry): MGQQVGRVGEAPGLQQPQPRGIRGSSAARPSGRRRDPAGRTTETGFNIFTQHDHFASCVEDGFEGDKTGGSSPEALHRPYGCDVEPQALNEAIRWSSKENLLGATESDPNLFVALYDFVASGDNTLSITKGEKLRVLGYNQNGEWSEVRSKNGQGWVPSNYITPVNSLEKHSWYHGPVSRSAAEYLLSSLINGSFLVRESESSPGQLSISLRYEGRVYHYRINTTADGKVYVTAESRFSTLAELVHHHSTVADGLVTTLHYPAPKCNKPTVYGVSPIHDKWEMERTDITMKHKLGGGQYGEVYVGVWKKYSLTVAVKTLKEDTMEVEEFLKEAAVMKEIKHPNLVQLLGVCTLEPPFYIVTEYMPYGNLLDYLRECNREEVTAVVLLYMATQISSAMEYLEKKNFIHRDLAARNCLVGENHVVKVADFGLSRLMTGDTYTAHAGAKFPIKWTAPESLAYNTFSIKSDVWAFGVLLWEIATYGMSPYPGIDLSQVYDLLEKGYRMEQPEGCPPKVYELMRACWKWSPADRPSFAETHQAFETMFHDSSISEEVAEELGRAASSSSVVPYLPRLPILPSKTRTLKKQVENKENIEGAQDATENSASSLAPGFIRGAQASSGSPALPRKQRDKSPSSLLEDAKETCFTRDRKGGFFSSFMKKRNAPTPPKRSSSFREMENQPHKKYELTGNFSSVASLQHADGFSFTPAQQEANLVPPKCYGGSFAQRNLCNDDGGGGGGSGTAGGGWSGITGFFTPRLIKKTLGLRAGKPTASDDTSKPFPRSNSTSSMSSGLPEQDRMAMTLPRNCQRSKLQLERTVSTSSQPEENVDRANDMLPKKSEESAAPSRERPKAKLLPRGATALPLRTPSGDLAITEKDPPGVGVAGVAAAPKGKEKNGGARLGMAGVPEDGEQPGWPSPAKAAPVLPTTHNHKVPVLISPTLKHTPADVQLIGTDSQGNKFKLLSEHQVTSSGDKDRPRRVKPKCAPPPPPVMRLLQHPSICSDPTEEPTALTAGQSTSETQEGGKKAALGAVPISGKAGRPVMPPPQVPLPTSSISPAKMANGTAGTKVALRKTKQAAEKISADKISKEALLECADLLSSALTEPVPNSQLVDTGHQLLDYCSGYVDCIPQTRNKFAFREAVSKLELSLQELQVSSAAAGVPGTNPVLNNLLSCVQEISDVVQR
Chain of PDGFRa (P16234 24-1089): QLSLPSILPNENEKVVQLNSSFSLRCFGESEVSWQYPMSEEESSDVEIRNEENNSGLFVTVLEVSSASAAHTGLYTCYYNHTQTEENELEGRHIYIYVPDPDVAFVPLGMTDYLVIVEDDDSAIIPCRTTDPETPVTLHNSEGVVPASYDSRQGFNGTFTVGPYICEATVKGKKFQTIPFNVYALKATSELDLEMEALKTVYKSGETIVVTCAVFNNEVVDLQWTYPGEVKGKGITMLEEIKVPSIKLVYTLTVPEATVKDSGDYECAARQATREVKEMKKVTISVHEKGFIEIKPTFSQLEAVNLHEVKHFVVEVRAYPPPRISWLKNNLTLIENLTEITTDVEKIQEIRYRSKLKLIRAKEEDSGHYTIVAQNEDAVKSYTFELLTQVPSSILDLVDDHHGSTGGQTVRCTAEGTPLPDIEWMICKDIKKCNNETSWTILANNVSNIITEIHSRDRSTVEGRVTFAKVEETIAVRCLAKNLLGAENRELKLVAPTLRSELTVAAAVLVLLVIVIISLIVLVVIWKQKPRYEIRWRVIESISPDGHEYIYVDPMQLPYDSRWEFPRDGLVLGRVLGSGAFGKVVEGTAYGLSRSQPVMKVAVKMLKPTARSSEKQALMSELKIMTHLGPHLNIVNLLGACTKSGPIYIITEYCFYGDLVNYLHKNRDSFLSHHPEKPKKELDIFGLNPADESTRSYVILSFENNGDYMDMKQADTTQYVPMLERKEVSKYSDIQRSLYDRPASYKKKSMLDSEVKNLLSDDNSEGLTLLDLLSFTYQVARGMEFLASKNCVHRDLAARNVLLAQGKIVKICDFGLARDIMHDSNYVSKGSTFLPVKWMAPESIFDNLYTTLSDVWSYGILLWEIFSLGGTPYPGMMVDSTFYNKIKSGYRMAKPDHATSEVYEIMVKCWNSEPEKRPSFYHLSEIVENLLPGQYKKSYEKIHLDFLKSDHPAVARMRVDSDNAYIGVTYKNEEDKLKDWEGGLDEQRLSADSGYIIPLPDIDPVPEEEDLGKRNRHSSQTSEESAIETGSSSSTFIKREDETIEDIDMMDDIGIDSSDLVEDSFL
Chain of BRK (Q13882 whole entry): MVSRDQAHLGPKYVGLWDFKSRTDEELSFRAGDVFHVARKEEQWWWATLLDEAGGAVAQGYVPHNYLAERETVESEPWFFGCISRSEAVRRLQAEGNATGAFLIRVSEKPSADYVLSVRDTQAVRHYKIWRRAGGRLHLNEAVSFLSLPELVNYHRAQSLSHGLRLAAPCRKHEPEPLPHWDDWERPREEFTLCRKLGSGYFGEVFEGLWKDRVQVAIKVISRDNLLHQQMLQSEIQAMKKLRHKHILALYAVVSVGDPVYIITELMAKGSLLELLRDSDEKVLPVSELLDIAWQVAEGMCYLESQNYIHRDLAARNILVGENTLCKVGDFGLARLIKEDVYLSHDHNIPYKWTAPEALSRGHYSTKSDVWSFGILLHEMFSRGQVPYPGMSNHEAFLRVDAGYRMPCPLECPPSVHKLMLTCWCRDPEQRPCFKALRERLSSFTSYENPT
Chain of EPHA8 (P29322 28-1005): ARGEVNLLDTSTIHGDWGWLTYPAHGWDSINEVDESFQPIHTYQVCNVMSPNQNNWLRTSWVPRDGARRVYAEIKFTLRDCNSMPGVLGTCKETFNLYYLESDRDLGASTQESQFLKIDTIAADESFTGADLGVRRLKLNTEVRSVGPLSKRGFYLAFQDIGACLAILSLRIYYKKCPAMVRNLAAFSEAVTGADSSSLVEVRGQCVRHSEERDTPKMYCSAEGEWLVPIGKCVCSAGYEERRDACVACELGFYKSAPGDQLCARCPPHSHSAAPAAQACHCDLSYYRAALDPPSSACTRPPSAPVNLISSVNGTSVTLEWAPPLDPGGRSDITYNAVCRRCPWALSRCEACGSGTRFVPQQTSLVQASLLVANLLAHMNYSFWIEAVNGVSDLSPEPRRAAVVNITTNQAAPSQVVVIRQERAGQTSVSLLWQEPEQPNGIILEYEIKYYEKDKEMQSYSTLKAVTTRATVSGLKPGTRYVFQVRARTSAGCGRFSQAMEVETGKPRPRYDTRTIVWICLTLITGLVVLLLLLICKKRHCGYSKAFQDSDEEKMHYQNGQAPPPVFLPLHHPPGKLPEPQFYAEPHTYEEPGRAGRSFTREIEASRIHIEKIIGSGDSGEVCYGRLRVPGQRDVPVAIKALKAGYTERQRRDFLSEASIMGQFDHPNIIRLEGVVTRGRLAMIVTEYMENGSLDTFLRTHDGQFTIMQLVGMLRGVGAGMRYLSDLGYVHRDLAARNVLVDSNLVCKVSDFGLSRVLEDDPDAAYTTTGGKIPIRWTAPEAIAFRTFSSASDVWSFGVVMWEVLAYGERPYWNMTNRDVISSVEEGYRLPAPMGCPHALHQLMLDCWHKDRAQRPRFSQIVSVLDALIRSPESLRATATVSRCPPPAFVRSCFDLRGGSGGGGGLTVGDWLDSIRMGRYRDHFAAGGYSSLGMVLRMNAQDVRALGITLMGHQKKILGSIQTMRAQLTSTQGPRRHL
Chain of LYN (P07948 whole entry): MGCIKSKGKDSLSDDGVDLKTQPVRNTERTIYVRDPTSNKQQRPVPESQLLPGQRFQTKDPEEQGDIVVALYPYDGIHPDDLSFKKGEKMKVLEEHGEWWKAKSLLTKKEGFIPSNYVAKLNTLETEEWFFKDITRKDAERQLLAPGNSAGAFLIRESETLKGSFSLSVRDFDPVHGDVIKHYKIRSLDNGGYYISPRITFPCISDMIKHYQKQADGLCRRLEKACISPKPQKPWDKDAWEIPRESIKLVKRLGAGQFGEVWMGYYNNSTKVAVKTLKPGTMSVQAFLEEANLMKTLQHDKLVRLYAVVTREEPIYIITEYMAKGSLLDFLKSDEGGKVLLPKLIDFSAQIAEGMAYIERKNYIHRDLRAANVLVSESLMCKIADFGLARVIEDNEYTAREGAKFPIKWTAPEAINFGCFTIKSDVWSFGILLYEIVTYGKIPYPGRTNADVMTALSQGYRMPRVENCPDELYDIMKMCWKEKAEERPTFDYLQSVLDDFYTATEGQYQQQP

inhibition at 1 µM (BRK): ≥ 70% | inhibition at 1 µM (EPHA8): ≥ 70% | inhibition at 1 µM (ABL1): ≥ 70% | inhibition at 1 µM (HGK/MAP4K4): ≥ 70% | inhibition at 1 µM (RIPK4): ≥ 70% | inhibition at 1 µM (TNK1): ≥ 70% | inhibition at 1 µM (ABL2/ARG): ≥ 70% | inhibition at 1 µM (BRAF): ≥ 70% | inhibition at 1 µM (c-Src): ≥ 70% | inhibition at 1 µM (FGFR3): ≥ 70% | inhibition at 1 µM (CSK): ≥ 70% | inhibition at 1 µM (EPHA6): ≥ 70% | inhibition at 1 µM (EPHA2): ≥ 70% | inhibition at 1 µM (TYK2): ≥ 70% | inhibition at 1 µM (DDR2): ≥ 70% | inhibition at 1 µM (HCK): ≥ 70% | inhibition at 1 µM (LYN B): ≥ 70% | inhibition at 1 µM (LYN): ≥ 70% | inhibition at 1 µM (JAK1): ≥ 70% | inhibition at 1 µM (EPHA1): ≥ 70% | inhibition at 1 µM (PDGFRa): ≥ 70% | inhibition at 1 µM (MLK4): ≥ 70% | inhibition at 1 µM (DDR1): ≥ 70% | inhibition at 1 µM (FRK/PTK5): ≥ 70%
SMILES: Cc1ccc(Nc2ncc3cc(-c4cc(NC(=O)c5cccc(C(F)(F)F)c5)ccc4C)ncc3n2)cn1 [Compound No. 4, N-(4-methyl-3-(2-((6-methylpyridin-3-yl)amino)pyrido[3,4-d]pyrimidin-6-yl)phenyl)-3-(trifluoromethyl)benzamide]
